Measurements published in patent US20190010461A1, “HUMAN PLURIPOTENT STEM CELL-BASED SCREENING FOR SMOOTH MUSCLE CELL DIFFERENTIATION AND DISEASE” (Wisconsin Alumni Research Foundation, priority 2017, published 2019).

Assays:
intimal hyperplasia = tested on: intimal hyperplasia
From the text: FIG. 5A depicts the rat balloon injury experiment. H&E staining is shown. Arrowheads indicate the intima. Scale bar=200 μm. […] Scale bar=100 Neointima is highlighted. Red arrows indicate the region with high SMA expression. Yellow arrows indicate the region with low SMA expression. […] Red arrows indicate the region with high MYH11 expression. Yellow arrows indicate the region with low MYH11 expression. […] Red arrows indicate the region with high SM22α expression. Yellow arrows indicate the region with low SM22α expression. […] The “% of high expression”=ratio of “area of high expression”! “total area of intima and media”. Data are represented as mean±SD. […] Scale bar=100 μm. Neointima is highlighted.
Rat carotid artery balloon injury model and periadventitial delivery—This animal study was conducted with approval from the UW-Madison Department of Surgery Animal Care and Use Committee. Briefly, 2 mg (2 animals/group) or 10 mg (3 animals/group) of RepSox (or DMSO) dissolved in Regel (Tri-block gel) (Regel tri-block gel is described in Chen et al. “Unimolecular Micelle-Based Hybrid System for Perivascular Drug Delivery Produces Long-Term Efficacy for Neointima Attenuation in Rats,” Biomacromolecules, 2017 Jun. 14. doi: 10.1021/acs.biomac.7b00617) was applied to the outside of the injured artery segment immediately after balloon injury of the rat carotid artery. Two weeks post-surgery, arteries were collected and sectioned. The ratio of intima area versus media area and lumen area were measured by Image J.
We next examined the function of RepSox in a rat intimal hyperplasia model. In order to reduce any side effect induced by systematic drug delivery, RepSox or DMSO was dissolved in gel and then applied to the outside of the injured artery segment immediately after balloon injury of the rat carotid artery (Shi et al., 2014). Carotid arteries were collected and sectioned 14 days after surgery. […] To test the effect of RepSox, we performed qPCR analysis.

[1] = tested on: primary human aortic SMCs (AoSMCs)
From the text: Scale bar=500 μm. […] Scale bar=100 μm. […] Data are represented as mean±SD.

NOTCH1 = tested on: NOTCH1
Description: Data are represented as mean±SD, n=3 biological replicates. *, p<0.05, student t-test. […] Cells were treated with RepSox (25 μM) or SiRNA. Comb3: Knockdown of TGFBR1, ACVR1B, and ACVR1C at the same time. Data are represented as mean±SD, n=2 biological replicates. *, p<0.05, student t-test. […] Cells were treated with RepSox (25 μM) or SiRNA. Data are represented as mean±SD, n=2 biological replicates. *, p<0.05, student t-test. […] During the smooth muscle cells differentiation, cells were treated with or without RepSox from day 10-11. […] During the smooth muscle cells differentiation, cells were treated with RepSox for 1 or 20 hours at day 12. […] Data are represented as mean±SD, n=3 biological replicates. *, p<0.05, student t-test. […] Cells were treated with RepSox and non-targeting control (NT)/SiRNA at day 10. The RNA was isolated at day 14.

For `Cc1cccc(-c2n[nH]cc2-c2ccc3ncccc3n2)n1` [RepSox, RepSox (SJN 2511)], the intima/media ratio (intimal hyperplasia; 2 mg or 10 mg RepSox in gel periadventitially, 14 days after surgery, DMSO control 1.5) was 0.5, the “endothelia cell marker expression (qPCR)” value (intimal hyperplasia; injured rat carotid artery, versus DMSO) was “increased” and the “apoptosis in intima (TUNEL)” value (intimal hyperplasia; versus DMSO) was “increased”. For the same compound, the “expression of contractile proteins SMA, MYH11 and SM22α” value (intimal hyperplasia; versus DMSO) was “significantly increased”, the “proliferation in intima and media layer (immunostaining)” value (intimal hyperplasia; versus DMSO) was “decreased proliferation in intima but not media layer” and the “contractile gene expression of AoSMCs” value ([1]; 100 μM RepSox for three days versus DMSO) was “increase”. For the same compound, the “proliferation rate of AoSMCs” value ([1]; 100 μM RepSox for two days versus DMSO) was “reduced”, the “contraction ability of AoSMCs” value ([1]; 100 μM RepSox for two days, then 100 μM carbachol) was “without affecting” and the “cell migration rate of AoSMCs” value ([1]; 100 μM RepSox versus DMSO) was “reduced”. The “RepSox treatment time after which increased NOTCH signaling could be detected” value (NOTCH1; RepSox for 1 or 20 hours at day 12) was 1 h and the “full-length NOTCH1 and intracellular domain (NICD) expression” value (NOTCH1; treated with or without RepSox day 10-11) was “enhanced”.
